# Assay results from patent US8367864B2, “Dimeric double metal salts of (−)-hydroxycitric acid, methods of making and uses of same” (Glykon Technologies Group, LLC, priority 2006, dated 2013).
# How the values were obtained:
# [1] = tested on: middle-aged rats fed a 30% fat diet; conditions: cited from earlier work
# [2] = physchem
# [3] = Alcohol solubility (1% wt in 50% v/v ethanol); format: physicochemical; conditions: tested at 1% weight in 50% (v/v) ethanol solution
# [4] = kinetic study
# From the text: This structure is like the soluble double metal HCA salts disclosed by Balasubramanyam et al., (U.S. Pat. No. 6,160,172, issued Dec. 12, 2000; U.S. Pat. No. 6,395,296, issued May 28, 2002).
# [5] = conditions that elevate de novo lipogenesis; cited from earlier work
# [6] = in vivo; cited from earlier work
# [7] = tested on: human hepatoma cell line Hep G2; conditions: cited from earlier work
# [8] = chronic administration; resting and exercising conditions; cited from earlier work
compound,measurement,setting,value
O=C([O-])CC(O)(C(=O)[O-])C(O)C(=O)[O-].[K+].[K+].[K+] (centres unmarked) [potassium HCA],fat as a percentage of body weight,[1],reducing
same,protein as a percentage of body weight,[1],increased
O=C(O)CC(O)(C(=O)O)C(O)C(=O)O (centres unmarked) [K/Mg-HCA monomer],solubility,[2],250 mg/mL
same,Alcohol Solubility (50% v/v alcohol; 1% wt test),[3],40%
same,absorption compared to the dimer,[4],less-absorbed
"O=C(O)CC(O)(C(=O)O)C(O)C(=O)O (single isomer, unassigned; (-)) [HCA, (−)-hydroxycitric acid]",energy expenditure,[5],increased
same,fat synthesis,[5],reduced
same,appetite and satiety,[6],promote appetite suppression and satiety
same,"incorporation of [1,5-14C]citrate into fatty acids and cholesterol","[7]; 2.5 h and 18 h incubations, 0.5 mM or higher",strongly inhibited
same,"Cholesterol biosynthesis, of the control value",[7]; incorporation of tritium from tritiated water,27%
same,respiratory exchange ratio,[8],significantly lower
